Results as given in patent publication US20190374481A1, “ADMINISTRATION REGIMEN FOR A PHARMACEUTICAL PATCH COMPRISING LIDOCAINE AND DICLOFENAC” (TEIKOKU SEIYAKU CO., LTD., priority 2017, published 2019).

Key:
CFA-hindpaw inflammation = assay: CFA-hindpaw inflammation, paw pressure test (CFA-PPT), intraperitoneal injection; type: in vivo, rat
Method: An interaction study was performed as a single dose study in the CFA-hindpaw inflammation, paw pressure test.
In comparative example 1 and inventive examples 1 to 4 described below, a compound or combination of compounds was administered by intraperitoneal injection (FIGS. 1 to 9).
(§1) The pain was measured by pressing a pointer on the inflamed paw. The pointer exerts a force, increasing at a constant rate, monitored by a linear scale. Pain is deemed to be perceived one the rat starts to withdraw the paw. This value (withdrawal threshold in gram) is the pressure at which the animal feels pain (cut-off 450 g). Efficacy of the test compounds is expressed as a percent change of withdrawal threshold after compound administration to the pre-value (withdrawal threshold before compound administration).

[1] = test system: CFA-induced edema of paw / mechanical-hyperalgesia; assay: CFA-hindpaw inflammation, paw pressure test (CFA-PPT), topical application to the paw; type: in vivo, rat
Method: In comparative example 2 and inventive examples 5 to 8 as described below, a compound or combination of compounds was administered topically to the paw by means of an ointment or solution (FIGS. 10 to 18).
The efficacy was tested when a compound or a compositions of compounds was administered topically as an ointment or a solution. The study was performed on male albino rats (150-180 g body weight) to which an edema of paw was induced by injection of Complete Freunds Adjuvant (CFA). CFA is a composition of inactivated and dried Myobacteria tuberculoses, emulsified in mineral oil which is used as an immunopotentiator causing a painful reaction that lasts 7-8 days after subcutaneous injection.
The studies of comparative example 2 and inventive examples 5 to 8 were performed according to the following procedure: 50 μL of CFA were injected sub plantar into the right hind paw, inducing mechanical-hyperalgesia after 24 hours. […]
as §1, with “Pain is deemed to be perceived one the rat starts to withdraw the paw. This value (withdrawal threshold in gram) is the pressure at which the animal feels pain (cut-off 450 g).” left out

Compound | efficacy in CFA-PPT when administered alone (CFA-hindpaw inflammation; Diclofenac alone, dose range 21.5 mg/kg to 100 mg/kg ip) | efficacy in CFA-PPT when topically administered alone ([1]; Diclofenac alone, 40 mg/ml to 80 mg/ml) | efficacy in CFA-PPT when administered alone (CFA-hindpaw inflammation; Lidocaine alone, dose range 10 mg/kg to 46.4 mg/kg ip) | efficacy in CFA-PPT when topically administered alone ([1]; Lidocaine alone, 30 mg/ml to 60 mg/ml)
O=C(O)Cc1ccccc1Nc1c(Cl)cccc1Cl [Diclofenac, 2-(2,6-dichloranilino) phenylacetic acid] | dose dependent efficacy | dose dependent efficacy |  | 
CCN(CC)CC(=O)Nc1c(C)cccc1C [Lidocaine, 2-(diethylamino)-N-(2,6-dimethylphenyl)acetamide] |  |  | dose dependent efficacy | dose dependent efficacy
